Measured values from article PMC10046377, “Inhibitors of the Oncogenic PA2G4-MYCN Protein-Protein Interface” (Cancers, 2023).

Assays:
[1] = system: normal human myofibroblasts; experiment: Toxicity for normal human myofibroblasts relative to WS6; format: cell-based
Protocol: Cell viability was determined by the Alamar Blue assay (75 mg resazurin, 12.5 mg methylene blue, 164.5 mg potassium hexacyanoferrate (III), 211 mg potassium hexacyanoferrate (II) trihydrate in 500 mL of phosphate buffered saline). After 6 h incubation with Alamar Blue, the change of fluorescence was measured by Victor 3 multilabel Plate Reader (Perkin Elmer Australia, Melburne, Australia) at an excitation wavelength of 560 nm and an emission wavelength of 590 nm.
We have shown that the PA2G4 protein increased the half-life of the oncoprotein MYCN through direct binding, and competitive chemical inhibition of this bond by WS6 reduced tumorigenicity both in vitro and in vivo [11]. […] Here, we explored the structure–activity relationship (SAR) of WS6 analogue compounds with the aim to increase efficacy and reduce toxicity. […] The in vitro cytotoxicity of these 14 compounds were measured by cell viability assays using Alamar Blue in MYCN amplified human neuroblastoma (SK-N-BE(2)-C and Kelly) cell lines compared to non-malignant (WI-38, MRC-5) myofibroblast cell lines (Figure 1B,C and Supplementary Figure S1A).

[2] = system: cleaved PARP and cleaved Caspase 3; experiment: Western blot of apoptotic markers; format: cell-based, human; details: compared to WS6 treatment at IC50 concentration; no changes in Bcl-2 or Bax
Protocol: Protein was extracted from cell pellets using RIPA buffer (Sigma) with 10% protease inhibitor (Sigma, Sydney, Australia). Quantification of proteins was conducted using Pierce BCA protein assay kit (Thermo Scientific), according to manufacturer’s instructions. A total of 30–50 μg protein samples were loaded onto Criterion TGX 10% precast gel (Bio-Rad) or NuPAGE™ 4–12% Mini Protein Gel (Invitrogen, Life technologies) and transferred to a nitrocellulose membrane (Bio-Rad). […] Quantification of protein expression was measured by Image Lab software (Bio-Rad) and normalised to loading control.
To determine if the drug effects led to apoptosis, we stained cells with annexin-V/7-AAD, a marker of early and late apoptotic events (Figure 2D). […] To confirm the apoptotic status of the cells, protein expression of key apoptotic markers PARP/Cleaved PARP, Caspase 3/Cleaved caspase 3, BCL2, and Bax was measured (Figure 2E).

SK-N-BE(2)-C cells = experiment: Label-free quantitative LC/MS proteomics of treated SK-N-BE(2)-C cells; format: cell-based, human; details: 72 h, versus DMSO, LFQ LC/MS
Protocol: SK-N-BE(2)-C cells were incubated with #5333 or #5338 at IC50 concentration of the compound for 72 h. Cells were harvested and the pellets were lysed with RIPA buffer containing protease inhibitors (Sigma-Aldrich, St. Louis, MO, USA). Cell lysates were sent for LFQ/LC/MS analysis at the Bioanalytical Mass Spectrometry Facility, UNSW Sydney. […] Differential protein expression analysis was performed using the DEP (v1.14.0) package in R(v4.1.1). Variance stabilising transformation (vsn) method was used to normalise the protein expression data. Threshold of p-value < 0.05 and log2 fold-change value > |0.6| was used as a cut off to identify differentially expressed proteins. Functional enrichment analysis was performed using DAVID (v 6.8).
To further understand the mechanism of action and off target effects of the WS6 analogues, we used label-free quantitative mass spectrometry of differential proteome expression in response to drug treatment. […] A total of 4255 unique proteins were captured across the three proteomes, of which 258 proteins were differentially expressed after treatment with #5333, and 1371 proteins treated with #5338, when compared to DMSO-treated cells (Figure 4A,B and Supplementary Figure S4A).

[3] = system: neuroblastoma cells (Kelly and SK-N-BE(2)-C); experiment: BrdU cell proliferation assay; format: cell-based, human; details: 30 μM drug treatment for 48 h
Protocol: Cells were seeded in 96-well plates the day before and then treated with #5333 and #5338 for […]. Cell proliferation was measured using the BrdU ELISA kit (Roche, Millers Point, Australia), according to the manufacturer’s instructions. 10 μM BrdU was added to media and incubated at 37 °C in 5% CO2 for 2 h. Cells were fixed with supplied fixing solution for 30 min and then blocked with 10% FCS in PBS for 10 min. Peroxidase-conjugated anti-BrdU (1:100) was added and incubated for 90 min at room temperature. After washing with PBS for three times, peroxidase substrate was added to the cells. Changes in cell proliferation were calculated from the absorbance readings at 370 nm (495 nm reference wavelength) on the Benchmark Plus microplate reader (Bio-Rad).
We treated human neuroblastoma tumour cell lines with high MYCN and PA2G4 expression (Kelly and SK-N-BE(2)-C), using increasing concentrations of #5333 or #5338, and measured the ability of cells to proliferate and form colonies in vitro over 2 weeks. […] Next, we evaluated cell replication using the BrdU uptake assay in response to 30 μM drug treatment for 48 h (Figure 2C).

| Structure (SMILES) | fold lower toxicity for normal human myofibroblasts compared to WS6 [1] [fold] | expression of cleaved PARP and cleaved Caspase 3 [2] | GATA2 protein fold change (SK-N-BE(2)-C cells) | cell proliferation (BrdU uptake) [3] |
| --- | --- | --- | --- | --- |
| Cc1cccc(Oc2cc(N3CCC(C(=O)NCc4cccc(Br)c4)CC3)ncn2)c1C [#5333] | 70 | increased | −4.2 | significantly reduced |
| Cc1cccc(Oc2cc(N3CCC(C(=O)N[C@@H](C)CCc4ccccc4)CC3)ncn2)c1C [#5338] | 70 | increased | −5.5 | significantly reduced |
